Holding throughout (type): cell-based, mice
Test [1] has as its system B cells cultured with TFH cells. The experiment in a line: in vitro cultures of B and TFH cells (activated culture) with addition of pathway/metabolic inhibitors. To be noted: inhibitor added to activated culture (B + TFH), anti-CD3/IgM. The method, then: (§1) To determine the mechanisms of how TFH and B cells are altered during direct TFR suppression, an in vitro suppression assay in which TFR cells are cultured with TFH and B cells was utilized. See e.g., Sage et al., J Clin Invest 124, 5191-5204 (2014); Sage et al., Immunity 41, 1026-1039 (2014); Sage et al., Methods Mol Biol 1291, 151-160 (2015). For these assays, FoxP3IRES-GFP mice were immunized with NP-OVA (emulsified in CFA) subcutaneously and isolated draining lymph nodes 7 days later. TFR (sorted as CD4+ICOS+CXCR5+CD19− FoxP3+) cells were added to co-cultures of B (sorted as CD19+) and TFH (sorted as CD4+ICOS+CXCR5+CD19−FoxP3) cells along with anti-CD3 and anti-IgM for 2 to 6 days (FIG. 1A, FIG. 36A, and FIG. 36B).
To determine if suppressing Myc in activated B cells could recapitulate TFR suppression, in vitro suppression assays were performed in which B cells were cultured with TFH cells, TFH and TFR cells, or TFH cells and the Myc inhibitor 10058-F4 (F4w).
The mTOR pathway promotes protein synthesis during activation and has been linked to enhancing cellular metabolism. […] In vitro cultures of B and TFH cells were performed along with either the mTORc1 inhibitor rapamycin or TFR cells. […] Akt can act both upstream and downstream of mTOR to mediate activation signaling.
To determine if inhibiting glycolysis could recapitulate TFR suppression, cultures of B and TFH cells were performed with the addition of 2-deoxyglucose (2DG), a glucose analog that blocks glycolysis.
Therefore, whether inhibitors of purine metabolism could recapitulate TFR suppression in vitro was determined.

Test [2] concerns B cells cultured with TFH and TFR cells (suppressed cultures). The experiment in a line: in vitro TFR suppression assay (B, TFH and TFR cells) with addition of cytokine. To be noted: for amount of secreted antibody in culture supernatants: compared to activated cultures. The method, then: as §1, with “36B). After 6 days of co-culture of B and TFH cells, robust upregulation of the GC B cell marker GL7 was found as well as class switch recombination to IgG1, the predominant class switched isotype in this model (FIG. 1B). In addition, robust quantities of secreted IgG were found in the culture supernatant when B cells were cultured with TFH cells, but not when B cells were cultured alone. […] CD4^+CXCR5^−ICOS^−Foxp3^+ Treg cells were not able to suppress as efficiently as TFR cells did (FIG. 15). […] Therefore, this culture system is a robust model to study TFR suppression of TFH and B cells.” for “36B).”
It is possible that B cell function genes and multiple metabolic pathways cooperate to induce class switch recombination and antibody production in B cells. […] Therefore, to determine ways to overcome suppressed B cells therapeutically, it is possible that both B cell genes and metabolism would need to be energized to overcome suppression. […] When IL-21 was added to suppression assays, the attenuation in proliferation of B cells mediated by TFR cells was rescued (FIG. 11A).
Since metabolism is essential to facilitate B cell effector functions and is regulated by TFR cells, the metabolic potential of B cells was assessed in suppressed cultures with the addition of IL-21. […] Similarly, Glut1 expression on TFH cells was rescued when IL-21 was added to suppressed cultures. […] Therefore, addition of IL-21 can rescue the glycolytic function of suppressed B cells. It is possible that IL-21 rescues antibody production primarily through enhancing metabolism. To determine if enhanced glycolysis was required for the IL-21 rescue of antibody production in suppressed cultures, glycolysis was blocked to determine if antibody responses could still be rescued in the absence of enhanced metabolism. […] Therefore, IL-21 renders B cells resistant to TFR mediated suppression primarily by enhancing metabolism.
Whether IL-21 restored antibody production by acting directly on B cells was determined. Suppression assays were performed using B cells lacking the receptor for IL-21 (Il21r−/−). […] Since upregulation of GL7 is a robust indicator of B cell activation, its expression in suppressed cultures containing either Il21r+/+ B cells or Il21r−/− B cells and supplemented with IL-21 was compared.
Since IL-21 could be affecting the TFH, B or TFR cell in the suppressed culture, whether the rescue of suppressed metabolism could be due to a combined effect of stimulating B cells and inhibiting TFR suppression (by acting directly on the TFR cell) was determined. […] Therefore, IL-21 rescue of TFR cell suppression of B and TFH cells is the result of modulation of B cells as well as inhibiting TFR cells.

In test [3] the test system is B cells from suppressed cultures. Kind of test: RNA-seq transcriptional analysis of B cells from suppressed cultures supplemented with IL-21. The method, then:
In order to determine how B and TFH cells effector states are altered during TFR mediated suppression assays were performed followed by RNA-seq transcriptome analysis. In these experiments B and TFH cells (from immunized FoxP3-IRES-GFP mice) were cultured with or without TFR cells (from immunized ActinCFP FoxP3-IRES-GFP mice) for 6 days in the presence of NP-OVA (the same antigen used to generate the B, TFH and TFR cells). After 4 days of culture, B (sorted as CD19+IA+CD4−) and TFH (sorted as CD4+IA−CD19−CFP−) cells were sorted from the “activated” culture (TFH and B cells alone) or from the “suppressed” culture (TFH, B and TFR cells) and RNAseq transcriptional analysis was performed (FIG. 2A, FIG. 37A and FIG. 37B).
In order to determine which B cell function genes were rescued at the transcriptional level, RNA-seq transcriptional analysis was performed on B cells from activated cultures, from suppressed cultures, and suppressed cultures supplemented with IL-21. […] In the case of Aicda and Pou2af1, it is possible that this may be due to the epigenetic modification of these gene loci by TFR cells, however this was not tested directly.
Therefore, IL-21 overcomes TFR suppression by stimulating B cells as well as metabolic pathways.

Setting [4] is: cytokine added to suppressed culture.
Setting [5] is: cytokine added to suppressed cultures.
The mark [6] stands for this setting: Il21r−/− B cells, suppressed cultures plus IL-21.
Setting [7] is: suppressed cultures with vs without IL-21.

With `Cn1cnc([N+](=O)[O-])c1Sc1ncnc2nc[nH]c12` [AZA, azathioprine], in test [1], the “class switch recombination (IgG1+GL7+ B cells)” value (“class switch recombination” below) was “potently suppressed” and the “secreted antibody / antibody production in culture supernatants” value (“secreted antibody / antibody production” for short) is reported as “robust suppression”.

IL-6: another Stat3 signaling cytokine: in test [2] (setting [4]), the “amount of secreted antibody in culture supernatants” value (shortened to “amount of secreted antibody”) is “able to rescue”. The “lactate production in culture supernatants” value in test [2] (setting [5]) is reported as “substantially (although not completely) rescue”.

Turning to “IL-21: cytokine essential in the germinal center reaction”, the “GL7 expression in B cells” value in test [2] (Il21r+/+ B cells, suppressed cultures plus IL-21) is reported as “restored”. For the same molecule, in test [2] (setting [6]), the “GL7 expression in B cells” value is “not”, the “antibody responses (IgG1+GL7+ B cells)” value is recorded as “no evidence was found that antibody responses were restored”, the “number of B cells” value was “did not abolish the increase” and the “restoration of CSR” value is given as “prevent the restoration”. For the same molecule, the “restoration of Glut1 expression on B cells” value in test [2] (setting [6]) was “prevent the restoration”. Moreover, in test [2] (cytokine added to suppressed culture (B + TFH + TFR)), the “proliferation of B cells (Cell Trace Violet dilution)” value is recorded as “rescued”. The “class switch recombination” value in test [2] (cytokine added to suppressed culture, compared to activated culture) is “much higher”. Also, in test [2] (setting [4]), the “amount of secreted antibody” value is given as “mostly rescued”. In test [2] (setting [5]), the “Glut1 expression on B cells” value is on record as “completely rescued”, the “Glut1 expression on TFH cells” value is reported as “rescued”, the “glucose consumption in the culture” value was “almost completely rescued” and the “lactate production in culture supernatants” value is recorded as “substantially (although not completely) rescue”. Also, the “rescue of antibody production when glycolysis is blocked” value in test [2] (suppressed cultures plus IL-21 with addition of 2-deoxyglucose (2DG)) was “not being able to rescue suppression”. Further, in test [2] (setting [7]), the “Glut1 expression in TFR cells” value was “higher” and the “intracellular Ki67 staining in TFR cells” value is on record as “much less”. Further, the “genes differentially expressed on suppression that are rescued (RNA-seq)” value in test [3] (12 genes differential in both suppressed vs IL-21 rescue and suppressed vs activated) was “only Ighg1 and Ighg2c were ‘rescued’”. In test [3] (suppressed plus IL-21 cultures), the “Aicda, Xbp1 and Pou2af1 transcripts (RNA-seq)” value was “did not show any evidence of rescue”; the “metabolic pathways (ssGSEA on RNA-seq)” value is “some rescue of many metabolic pathways”. The “B cell function gene transcripts (RNA-seq)” value in test [3] (suppressed vs. suppressed plus IL-21 cultures) was “only transcripts for the individual IgG isotypes (Ighg1, Ighg2c, Ighg2b, Igha) showed evidence of significant upregulation”.

As for `CCc1ccc(/C=C2/SC(=S)NC2=O)cc1` [10058-F4], in test [1], the “class switch recombination” value is listed as “slight diminishment” and the “secreted antibody / antibody production” value is “robustly attenuated”.

Turning to `O=CC[C@@H](O)[C@H](O)[C@H](O)CO` [2DG, 2-deoxyglucose], the “secreted antibody / antibody production” value in test [1] is “robust suppression”.

`CN(Cc1cnc2nc(N)nc(N)c2n1)c1ccc(C(=O)N[C@@H](CCC(=O)O)C(=O)O)cc1` [MTX, Methotrexate]: in test [1], the “class switch recombination” value is listed as “potently suppressed” and the “secreted antibody / antibody production” value was “robustly suppresses”.

B1: IL-4: cytokine added to suppressed cultures (protein, UniProt P05112 25-153, looked up)
Interleukin-4: HKCDITLQEIIKTLNSLTEQKTLCTELTVTDIFAASKNTTEKETFCRAATVLRQFYSHHEKDTRCLGATAQQFHRHKQLIRFLKRLDRNLWGLAGLNSCPVKEANQSTLENFLERLKTIMREKYSKCSS
In the case of B1, the “amount of secreted antibody” value in test [2] (setting [4]) is reported as “did not occur”.

These data come from patent US11028364B2, “Compositions and methods for modulating an immune response” (President and Fellows of Harvard College, priority 2015, dated 2021).
